In paper PMC2724842 (Biochemistry, 2009):
Where two headings read alike, the source gives them in different places.

How the values were obtained:
WT IPMS = WT IPMS (Mycobacterium tuberculosis, UniProt P9WQB3); format: binding; settings: ITC
wild-type MtIPMS = wild-type MtIPMS (Mycobacterium tuberculosis, UniProt P9WQB3); format: biochemical
WT MtIPMS = WT MtIPMS (Mycobacterium tuberculosis, UniProt P9WQB3); assay: Steady-state kinetic analysis; format: biochemical
Sequence of WT MtIPMS (P9WQB3 whole entry): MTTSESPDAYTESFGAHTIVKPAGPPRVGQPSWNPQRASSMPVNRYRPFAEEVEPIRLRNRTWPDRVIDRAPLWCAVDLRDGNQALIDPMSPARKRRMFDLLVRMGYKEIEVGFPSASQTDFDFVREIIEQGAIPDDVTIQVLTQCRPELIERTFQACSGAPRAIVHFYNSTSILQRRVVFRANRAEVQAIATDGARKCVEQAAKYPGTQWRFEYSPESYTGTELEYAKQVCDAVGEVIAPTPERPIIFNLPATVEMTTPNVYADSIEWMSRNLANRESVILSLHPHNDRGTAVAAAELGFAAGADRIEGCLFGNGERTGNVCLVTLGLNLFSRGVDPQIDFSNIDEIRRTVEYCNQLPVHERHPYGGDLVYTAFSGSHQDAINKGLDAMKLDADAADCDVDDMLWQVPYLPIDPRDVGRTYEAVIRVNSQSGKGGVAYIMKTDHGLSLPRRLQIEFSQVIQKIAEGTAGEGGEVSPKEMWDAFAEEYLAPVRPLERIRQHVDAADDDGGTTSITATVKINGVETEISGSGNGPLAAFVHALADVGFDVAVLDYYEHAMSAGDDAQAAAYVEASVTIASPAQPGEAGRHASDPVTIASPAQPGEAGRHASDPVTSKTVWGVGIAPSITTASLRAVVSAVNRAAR

Sequence of WT IPMS (P9WQB3 whole entry): as above
Sequence of wild-type MtIPMS (P9WQB3 whole entry): as above

CC(C)C[C@H](N)C(=O)O [L-leucine]
N (stoichiometry for binding) (WT IPMS): 0.86 ± 0.02 | ΔH (WT IPMS): 0.774 ± 0.02 kcal/mol | ΔS (WT IPMS): 27.8 cal/mol/K | activity retained at saturating L-leucine (wild-type MtIPMS): approximately 10% | β (fractional activity at saturating inhibitor) (wild-type MtIPMS): 0.1

CC(=O)SCCNC(=O)CCNC(=O)[C@H](O)C(C)(C)COP(=O)(O)OP(=O)(O)OC[C@H]1O[C@@H](n2cnc3c(N)ncnc32)[C@H](O)[C@@H]1OP(=O)(O)O [Acetyl-CoA, acetyl-coenzyme A]
Km (WT MtIPMS; read-out: K1 (Km), varied substrate Acetyl-CoA): 24 ± 2 µM | kcat1 (kcat) (WT MtIPMS; varied substrate Acetyl-CoA): 2.72 ± 0.05 s⁻¹

CC(C)C(=O)C(=O)O [α-KIV, α-ketoisovalerate]
Km (WT MtIPMS; read-out: K1 (Km), varied substrate α-KIV): 7.1 ± 0.5 µM | kcat1 (kcat) (WT MtIPMS; varied substrate α-KIV): 2.53 ± 0.05 s⁻¹
